Assay results as given in ChEMBL document CHEMBL1201862, “PubChem BioAssay data set” (2004).
pEC50: −log10 of the molar value. One block for each compound: values may come before it. Activity calls are given as the source filed them.

What was measured:
Procathepsin L = Procathepsin L (Homo sapiens, UniProt P07711); experiment: CTSL1 protease inhibition – biochemical, QFRET, 1536-well, counter-screen for M1/M17 aminopeptidase inhibitor project, dose response (AID 2214)
Aminopeptidase N = target: T1, Aminopeptidase N (Plasmodium falciparum FcB1/Columbia, UniProt O96935); experiment: malaria alanyl aminopeptidase activity blockers – biochemical, fluorogenic H-Leu-NHMec substrate, 1536-well (AID 1445); set-up: species or system Plasmodium falciparum 3D7, 3D7
T1 sequence (O96935 whole entry): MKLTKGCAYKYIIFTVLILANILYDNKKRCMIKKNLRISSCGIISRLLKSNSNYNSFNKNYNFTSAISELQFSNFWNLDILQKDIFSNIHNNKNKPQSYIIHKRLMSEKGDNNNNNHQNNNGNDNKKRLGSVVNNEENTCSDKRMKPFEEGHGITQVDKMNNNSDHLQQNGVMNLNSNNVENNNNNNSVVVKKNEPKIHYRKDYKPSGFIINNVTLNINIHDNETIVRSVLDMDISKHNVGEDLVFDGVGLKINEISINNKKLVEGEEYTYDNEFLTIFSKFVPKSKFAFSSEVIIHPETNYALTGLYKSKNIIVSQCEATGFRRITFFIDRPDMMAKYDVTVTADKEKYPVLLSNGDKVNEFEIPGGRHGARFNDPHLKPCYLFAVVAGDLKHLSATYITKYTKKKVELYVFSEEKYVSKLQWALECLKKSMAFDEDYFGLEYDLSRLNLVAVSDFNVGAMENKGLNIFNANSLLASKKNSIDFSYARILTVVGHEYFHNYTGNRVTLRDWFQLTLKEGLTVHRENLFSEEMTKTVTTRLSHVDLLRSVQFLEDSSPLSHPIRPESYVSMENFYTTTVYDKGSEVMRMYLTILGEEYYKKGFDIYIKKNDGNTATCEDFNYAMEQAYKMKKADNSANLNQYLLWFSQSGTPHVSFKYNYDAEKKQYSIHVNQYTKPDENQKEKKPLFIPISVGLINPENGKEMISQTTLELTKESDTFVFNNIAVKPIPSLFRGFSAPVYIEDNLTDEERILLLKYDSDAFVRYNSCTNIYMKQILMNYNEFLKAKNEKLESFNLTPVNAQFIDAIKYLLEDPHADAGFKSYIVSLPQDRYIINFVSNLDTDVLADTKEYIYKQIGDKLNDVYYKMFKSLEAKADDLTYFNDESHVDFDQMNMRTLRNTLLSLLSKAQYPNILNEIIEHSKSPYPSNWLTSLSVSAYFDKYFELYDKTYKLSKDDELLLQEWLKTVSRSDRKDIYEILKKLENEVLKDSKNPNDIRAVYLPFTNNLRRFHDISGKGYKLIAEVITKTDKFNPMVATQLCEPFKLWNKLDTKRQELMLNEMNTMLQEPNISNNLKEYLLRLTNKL

Aspartyl aminopeptidase = target: T2, Aspartyl aminopeptidase (Plasmodium falciparum 3D7, UniProt Q8I2J3); experiment: Counterscreen for inhibitors of M1 and M17 aminopeptidases: QFRET-based biochemical high throughput dose response assay for inhibitors of the Plasmodium falciparum M18 Aspartyl Aminopeptidase (PFM18AAP). [Related PubChem assays: 1619 (Screening assay (M17LAP inhibitors).), 1445 (Screening assay (M1AAP inhibitors).)]
T2 sequence (Q8I2J3 whole entry): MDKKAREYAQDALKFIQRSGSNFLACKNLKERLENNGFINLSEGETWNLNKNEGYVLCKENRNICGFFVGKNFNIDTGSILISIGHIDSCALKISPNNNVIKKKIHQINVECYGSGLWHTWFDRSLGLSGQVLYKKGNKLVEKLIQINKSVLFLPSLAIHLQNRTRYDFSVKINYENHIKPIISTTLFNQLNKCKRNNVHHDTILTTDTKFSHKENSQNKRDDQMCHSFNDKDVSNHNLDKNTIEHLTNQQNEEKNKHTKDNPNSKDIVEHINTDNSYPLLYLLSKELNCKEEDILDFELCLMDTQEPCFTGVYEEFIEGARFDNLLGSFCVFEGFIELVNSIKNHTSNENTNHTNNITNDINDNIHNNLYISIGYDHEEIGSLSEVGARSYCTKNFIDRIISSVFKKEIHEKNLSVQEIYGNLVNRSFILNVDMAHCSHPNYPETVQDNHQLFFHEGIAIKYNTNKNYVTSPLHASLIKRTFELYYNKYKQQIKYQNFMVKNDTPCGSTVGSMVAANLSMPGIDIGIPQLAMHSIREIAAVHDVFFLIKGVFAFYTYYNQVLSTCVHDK

Leucine aminopeptidase = target: T3, Leucine aminopeptidase (Plasmodium falciparum 3D7, UniProt Q8IL11); experiment: P. falciparum M17LAP inhibitors, primary screen, biochemical, fluorogenic H-Leu-NHMec substrate, 1536-well (AID 1619); format: functional
T3 sequence (Q8IL11 whole entry): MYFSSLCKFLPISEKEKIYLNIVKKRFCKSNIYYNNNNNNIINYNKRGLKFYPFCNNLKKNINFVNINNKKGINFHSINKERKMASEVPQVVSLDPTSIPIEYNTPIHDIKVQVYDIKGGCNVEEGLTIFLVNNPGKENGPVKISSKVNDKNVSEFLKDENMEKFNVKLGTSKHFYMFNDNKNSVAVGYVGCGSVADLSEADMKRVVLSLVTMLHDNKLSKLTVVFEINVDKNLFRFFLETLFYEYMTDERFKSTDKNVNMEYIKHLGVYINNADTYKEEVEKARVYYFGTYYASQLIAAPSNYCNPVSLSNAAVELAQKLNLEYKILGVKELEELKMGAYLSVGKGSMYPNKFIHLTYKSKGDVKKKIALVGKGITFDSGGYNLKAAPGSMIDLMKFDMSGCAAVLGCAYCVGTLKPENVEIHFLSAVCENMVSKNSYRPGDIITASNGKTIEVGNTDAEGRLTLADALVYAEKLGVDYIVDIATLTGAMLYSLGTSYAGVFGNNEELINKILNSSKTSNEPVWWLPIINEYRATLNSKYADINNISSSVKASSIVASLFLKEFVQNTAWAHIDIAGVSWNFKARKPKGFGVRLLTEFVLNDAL

[1] = Trypanosoma cruzi growth suppression in host cells – NIH3T3 host cells, beta-gal luminescence, confirmation (AID 2044); format: functional, cell-based;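 note: intracellular parasites grown in NIH/3T3 mouse fibroblasts as host cells; luminescent beta-galactosidase reporter signal from transgenic T. cruzi replicating inside host cells; inhibitors lower the luminescence signal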
[2] = NIH3T3 cell viability loss – ATP luminescence, mouse fibroblasts, counter-screen, dose response (AID 2010); format: functional, cell-based;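 note: cells exposed to compound for about 90 hours before reading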
HT-1080 = experiment: HT1080 cell viability loss – fluorescence readout (AID 620); format: functional, cell-based; conditions: Homo sapiens
[3] = target: Luciferin 4-monooxygenase (Photinus pyralis, UniProt P08659); experiment: Counter Screen for Luciferase-based Assay Positives. [Related pubchem assays: 620, 618, 411 ]
Chain of Luciferin 4-monooxygenase (P08659 whole entry): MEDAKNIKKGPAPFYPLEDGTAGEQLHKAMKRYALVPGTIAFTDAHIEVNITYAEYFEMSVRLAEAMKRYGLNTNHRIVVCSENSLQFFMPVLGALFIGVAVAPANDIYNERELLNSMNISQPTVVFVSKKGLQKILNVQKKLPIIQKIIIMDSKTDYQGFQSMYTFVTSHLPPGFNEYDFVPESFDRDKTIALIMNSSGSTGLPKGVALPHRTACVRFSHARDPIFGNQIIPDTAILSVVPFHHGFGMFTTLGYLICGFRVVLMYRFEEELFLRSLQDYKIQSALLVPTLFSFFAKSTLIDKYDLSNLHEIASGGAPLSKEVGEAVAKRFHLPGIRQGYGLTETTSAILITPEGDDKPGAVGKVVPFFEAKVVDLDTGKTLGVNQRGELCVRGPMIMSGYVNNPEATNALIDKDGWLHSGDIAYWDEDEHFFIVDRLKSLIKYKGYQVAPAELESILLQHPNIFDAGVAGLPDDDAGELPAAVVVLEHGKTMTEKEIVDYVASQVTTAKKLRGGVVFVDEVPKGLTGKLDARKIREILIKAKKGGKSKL

[4] = target: Neurotensin receptor type 1 (Homo sapiens, UniProt P30989); format: functional;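 note: Image-based confirmatory dose-response assay measuring agonist activity at NTR1; NTR1-expressing U2OS osteosarcoma cells imaged for beta-arrestin GFP spot formation; agonist potency where compounds increase beta-arrestin recruitment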
Chain of Neurotensin receptor type 1 (P30989 whole entry): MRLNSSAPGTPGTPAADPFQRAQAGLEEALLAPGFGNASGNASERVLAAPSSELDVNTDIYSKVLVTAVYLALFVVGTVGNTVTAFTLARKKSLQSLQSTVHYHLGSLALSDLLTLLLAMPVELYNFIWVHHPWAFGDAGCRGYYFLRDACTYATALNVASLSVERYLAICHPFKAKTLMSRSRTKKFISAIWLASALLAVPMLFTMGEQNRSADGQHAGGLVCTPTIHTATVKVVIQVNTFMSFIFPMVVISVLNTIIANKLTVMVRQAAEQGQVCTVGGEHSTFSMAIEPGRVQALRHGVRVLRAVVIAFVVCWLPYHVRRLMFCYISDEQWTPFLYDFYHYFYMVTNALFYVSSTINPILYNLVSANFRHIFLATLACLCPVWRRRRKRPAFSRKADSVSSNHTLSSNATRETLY

[5] = Shn3 3'UTR reporter signal decrease – cell-based, Clone20 osteoblasts, firefly luciferase, cherry-pick, set 2, Schnurri-3 inhibitor project, dose response (AID 720490); format: functional;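 note: actives lower the luminescence signal as inhibitors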
[6] = reduction of Shn3 3'UTR-driven luciferase in osteoblasts – cell-based, Clone20 osteoblasts, firefly luciferase, cherry-picked, dose response (AID 624132); format: functional;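 note: firefly luciferase luminescence from reporter carrying the Shn3 3'UTR in osteoblasts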
[7] = target: Metabotropic glutamate receptor 5 (Rattus norvegicus, UniProt P31424); experiment: Identification of a glycine sulfonamide based non-MPEP site positive allosteric potentiator (PAM) of mGlu5 (calcium_assay).; format: functional
Chain of Metabotropic glutamate receptor 5 (P31424 whole entry): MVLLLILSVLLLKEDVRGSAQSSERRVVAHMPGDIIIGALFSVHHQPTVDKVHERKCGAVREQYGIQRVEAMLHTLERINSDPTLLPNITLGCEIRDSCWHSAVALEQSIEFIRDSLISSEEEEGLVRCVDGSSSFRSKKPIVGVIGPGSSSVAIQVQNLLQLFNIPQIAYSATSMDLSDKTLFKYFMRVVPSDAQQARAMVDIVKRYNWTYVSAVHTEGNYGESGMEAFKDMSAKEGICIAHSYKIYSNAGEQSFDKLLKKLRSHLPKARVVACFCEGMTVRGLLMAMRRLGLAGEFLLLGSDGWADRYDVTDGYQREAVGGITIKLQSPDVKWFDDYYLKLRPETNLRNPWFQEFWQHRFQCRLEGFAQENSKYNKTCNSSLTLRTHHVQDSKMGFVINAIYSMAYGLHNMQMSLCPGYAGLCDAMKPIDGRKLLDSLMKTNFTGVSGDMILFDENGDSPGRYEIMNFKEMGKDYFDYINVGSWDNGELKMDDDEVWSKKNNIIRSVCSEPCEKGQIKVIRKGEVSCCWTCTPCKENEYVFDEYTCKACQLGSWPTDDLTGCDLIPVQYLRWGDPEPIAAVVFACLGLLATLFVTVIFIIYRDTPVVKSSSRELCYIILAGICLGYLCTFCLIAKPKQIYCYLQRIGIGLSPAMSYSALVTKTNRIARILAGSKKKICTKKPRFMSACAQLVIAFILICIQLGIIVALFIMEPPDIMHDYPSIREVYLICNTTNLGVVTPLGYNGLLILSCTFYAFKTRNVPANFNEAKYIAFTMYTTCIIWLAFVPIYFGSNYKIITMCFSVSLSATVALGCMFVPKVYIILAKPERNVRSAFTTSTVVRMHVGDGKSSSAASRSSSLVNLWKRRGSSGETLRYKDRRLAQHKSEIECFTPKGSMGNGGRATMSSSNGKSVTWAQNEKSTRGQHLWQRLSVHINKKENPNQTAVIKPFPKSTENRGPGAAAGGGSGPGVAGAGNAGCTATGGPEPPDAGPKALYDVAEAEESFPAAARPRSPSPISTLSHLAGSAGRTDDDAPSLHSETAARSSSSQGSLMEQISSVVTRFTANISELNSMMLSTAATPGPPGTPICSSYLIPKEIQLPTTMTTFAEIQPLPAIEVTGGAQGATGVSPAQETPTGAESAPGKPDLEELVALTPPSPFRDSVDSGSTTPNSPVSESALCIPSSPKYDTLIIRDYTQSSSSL

[8] = P. falciparum Dd2 growth inhibitors, dose response, SYBR Green, cherry-picked samples (AID 1159567); format: functional, cell-based
[9] = toxicity to human hepatoma HepG2 cells – cell-based, cherry-picked samples, cytotoxicity control, dose response (AID 1159577); format: functional

Chain of Procathepsin L (P07711 whole entry): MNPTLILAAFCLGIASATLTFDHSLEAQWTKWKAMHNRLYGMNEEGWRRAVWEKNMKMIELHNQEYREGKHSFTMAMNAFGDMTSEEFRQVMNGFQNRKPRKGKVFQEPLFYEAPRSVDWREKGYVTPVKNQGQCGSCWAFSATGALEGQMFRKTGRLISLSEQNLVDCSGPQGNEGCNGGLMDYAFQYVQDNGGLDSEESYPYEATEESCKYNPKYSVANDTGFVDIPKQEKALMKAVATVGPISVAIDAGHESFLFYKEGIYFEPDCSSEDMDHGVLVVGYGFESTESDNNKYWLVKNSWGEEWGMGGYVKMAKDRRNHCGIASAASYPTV

IC50 (Procathepsin L): > 59.6 µM (not active)
IC50 (Aminopeptidase N): 8.54 µM (active)
IC50 (Aspartyl aminopeptidase): > 73.5 µM (not active)
SMILES: O=C(Nn1c(C2CCC2)nc2ccccc2c1=O)c1cccs1

IC50 (Procathepsin L): > 59.6 µM (not active)
IC50 (Leucine aminopeptidase): 5.9 µM (active)
IC50 (Aspartyl aminopeptidase): > 73.5 µM (not active)
SMILES: Cc1ccc(NC(=O)CSc2nc(O)c3c(n2)CCC3)cc1C

EC50 [4]: 18.9 µM (active)
SMILES: COC(=O)c1ccc(/C=C/C(=O)OCC(=O)Nc2sccc2C(N)=O)cc1

pEC50 [7]: 7.31
SMILES: CS(=O)(=O)N(CC(=O)Nc1ccccc1)c1ccccc1Cl

EC50 [7]: > 30 µM (inactive)
SMILES: CC(C)NC(=O)CN(c1ccccc1Cl)S(C)(=O)=O

More lines, now with the values behind:

SMILES: Cc1ccc(S(=O)(=O)CC(=O)N(CCCN(C)C)c2nc3ccc(C)cc3s2)cc1
EC50 [1]: < 0.1 µM (active)
EC50 (cells): 0.06 µM (active)
EC50 [2]: > 30 µM (not active)

SMILES: CCCCN(C)C(=O)c1cc2cc3ccc(OC)cc3nc2s1
EC50 (HT-1080): > 50 µM (not active)
EC50 [3]: 0.22 µM (active)

SMILES: CCCCN1CC(COCc2ccccc2)Oc2cccc(Oc3ccc(C(C)C)cc3)c2S1(=O)=O (stereo not given)
AC50 [5]: 4.4 µM (active)
AC50 [6]: 5.03 µM (active)

SMILES: N#Cc1ccc(-c2ccc([C@@H]3[C@@H]4CN(Cc5ccccc5F)C[C@H]3N4)cc2)cc1
AC50 [8]: 1.88 µM (active)
AC50 [9]: 9.39 µM (active)

SMILES: COc1cccc(CN2C[C@@H]3N[C@H](C2)[C@@H]3c2ccc(-c3ccncc3)cc2)c1
AC50 [8]: 4.63 µM (active)
AC50 [9]: > 39 µM (inactive)
